Data from patent US11746087B1, “C4-carboxylic acid-substituted tryptamine derivatives and methods of using” (priority 2022, dated 2023).

How the values were obtained:
5-HT1A receptor = molecular target: T1, 5-HT1A receptor (Homo sapiens, UniProt P08908); experiment: cAMP-Glo assay in +5-HT1A vs −5-HT1A CHO-K1 cells; format: cell-based; conditions: for 5-HT1A receptor modulation, +5-HT1A vs −5-HT1A cultures: cAMP assay with 4 mM forskolin; for cAMP levels in +5-HT1A cells with increasing ligand: cells stimulated with 4 mM forskolin, compared with −5-HT1A cells
T1 construct: host or cells: CHO-K1 (co-expressing Ga15)
T1 sequence (P08908 1-422): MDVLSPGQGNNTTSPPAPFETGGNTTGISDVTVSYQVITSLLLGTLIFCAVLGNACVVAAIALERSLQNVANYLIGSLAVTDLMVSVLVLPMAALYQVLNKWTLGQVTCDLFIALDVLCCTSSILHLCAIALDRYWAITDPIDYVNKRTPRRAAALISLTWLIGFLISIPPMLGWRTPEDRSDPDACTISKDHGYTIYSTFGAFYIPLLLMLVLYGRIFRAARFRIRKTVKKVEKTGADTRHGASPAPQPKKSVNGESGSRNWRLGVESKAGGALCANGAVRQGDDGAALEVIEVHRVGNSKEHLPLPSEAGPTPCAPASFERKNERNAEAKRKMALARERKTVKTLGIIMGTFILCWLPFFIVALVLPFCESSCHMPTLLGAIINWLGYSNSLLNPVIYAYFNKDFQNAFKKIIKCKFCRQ

5-HT2A receptor [1] = molecular target: T2, 5-HT2A receptor (Mus musculus, UniProt P35363); experiment: Drug-induced Head Twitch Response (HTR); format: in vivo; conditions: C57BL/6 mice; 1 mg/kg i.p.; 15-to-30-minute window after administration
T2 construct: 8-week old C57BL/6-Elite male and female mice were obtained from Charles River; tissue Charles River; host or cells: living C57BL/6-Elite mice (neuronal receptor, in vivo)
T2 sequence (P35363 whole entry): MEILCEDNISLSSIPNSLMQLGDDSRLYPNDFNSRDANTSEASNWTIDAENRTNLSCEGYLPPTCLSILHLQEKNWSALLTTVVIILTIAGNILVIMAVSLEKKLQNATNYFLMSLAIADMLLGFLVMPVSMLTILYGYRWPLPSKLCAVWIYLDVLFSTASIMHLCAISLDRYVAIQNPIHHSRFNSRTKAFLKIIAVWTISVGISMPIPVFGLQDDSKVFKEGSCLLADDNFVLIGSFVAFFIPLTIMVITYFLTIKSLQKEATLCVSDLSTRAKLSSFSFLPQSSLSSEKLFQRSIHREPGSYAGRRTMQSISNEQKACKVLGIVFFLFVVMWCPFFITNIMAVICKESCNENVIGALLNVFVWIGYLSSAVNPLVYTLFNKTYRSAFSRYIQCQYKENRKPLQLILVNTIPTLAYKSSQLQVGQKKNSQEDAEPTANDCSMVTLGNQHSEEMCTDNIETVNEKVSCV

5-HT2A receptor [2] = molecular target: 5-HT2A receptor (Homo sapiens, UniProt P28223); experiment: [3H]ketanserin competition binding assay (SPA); conditions: 1 nM [3H]ketanserin; control ligands, FIG. 3E, 3F
5-HT2A receptor (Homo sapiens, UniProt P28223), sequence (P28223 whole entry): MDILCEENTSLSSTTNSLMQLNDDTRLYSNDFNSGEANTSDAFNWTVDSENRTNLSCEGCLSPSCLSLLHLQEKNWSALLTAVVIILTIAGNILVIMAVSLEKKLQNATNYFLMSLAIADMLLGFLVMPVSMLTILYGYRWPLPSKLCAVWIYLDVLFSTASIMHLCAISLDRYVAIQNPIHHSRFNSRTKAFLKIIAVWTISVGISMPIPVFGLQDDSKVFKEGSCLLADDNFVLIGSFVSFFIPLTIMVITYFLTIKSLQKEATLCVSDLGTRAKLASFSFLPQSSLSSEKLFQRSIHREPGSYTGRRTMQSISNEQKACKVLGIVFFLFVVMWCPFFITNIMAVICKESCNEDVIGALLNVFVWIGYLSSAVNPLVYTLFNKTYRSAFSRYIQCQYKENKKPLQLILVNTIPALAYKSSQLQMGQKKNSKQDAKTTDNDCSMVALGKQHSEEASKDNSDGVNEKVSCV

[3] = Stability / psilocin release in enzyme-free control buffer; format: in vitro ADME; conditions: enzyme-free control buffer pH 7.4, 37° C., 2 hours
Text: (§1) A fundamental evaluation in drug development is the assessment of absorption, distribution, metabolism, excretion, and pharmacokinetics (ADME/PK) (Eddershaw et al., 2000, Drug Discovery Today 5(9): 409-414). […] Drug stability upon exposure to human liver microsomes and liver S9 cellular fractions is a common in vitro assay to approximate in vivo, liver-based drug metabolism (Richardson et al., 2016 Drug Metabolism Letters 10:83-90). First-pass metabolism is also often approximated in vitro using intestinal microsome and cellular S9 fractions (Hatley et al., 2017, Biopharmaceuticals & Drug Disposition, 38(2):155-160). […] Supernatants were analyzed for the presence of candidate prodrugs (parent molecule) and psilocin (the predicted metabolite) using Orbitrap LC-MS (Thermo Scientific) using previously described methods (Menéndez-Perdomo et al., 2021, J Mass Spectrom, 56: e4683). […] Assay concentrations (μM) of both parent ‘prodrug’ molecule and psilocin metabolite, as quantified through LC-MS using routine standard curve procedures, were plotted as functions of assay time (minutes). The metabolism rate (T1/2) was determined from the metabolism curve plot using the one phase decay feature of GraphPad PRISM software (Version 9.2.0). The quantity of parent prodrug at time zero was set as 100%. […]

[4] = Metabolic stability / psilocin release in human liver microsomes; format: in vitro ADME; conditions: 400 μg/ml HLM, NADPH, 37° C.
Text: as §1

[5] = Metabolic stability / psilocin release in human liver S9; format: in vitro ADME; conditions: 400 μg/ml HLS9, NADPH, 37° C.
Text: as §1

[6] = Mouse PK study (IV and PO), plasma parent compound and psilocin by LC-MS/MS; format: in vivo; conditions: mouse; for Plasma concentration of psilocybin: psilocybin 1 mg/kg i.v.
Text: Briefly, the procedure was as follows. […] 19, 2022.

## COCCOCCOCC(=O)Oc1cccc2[nH]cc(CCN(C)C)c12 [C(III)]
5-HT1A receptor
  5-HT1A receptor modulation, +5-HT1A vs −5-HT1A cultures: significant receptor modulation
5-HT2A receptor [1]
  Head Twitch Response (HTR) incidence relative to vehicle: Elevated incidences of HTR

## CN(C)CCc1c[nH]c2cccc(OC(=O)c3cccc(C(=O)Oc4cccc5[nH]cc(CCN(C)C)c45)c3)c12 [C(VII)]
5-HT1A receptor
  5-HT1A receptor modulation, +5-HT1A vs −5-HT1A cultures: no significant receptor modulation
5-HT2A receptor [1]
  Head Twitch Response (HTR) incidence relative to vehicle: Elevated incidences of HTR

## COC(=O)c1cccc(C(=O)Oc2cccc3[nH]cc(CCN(C)C)c23)c1 [C(XLIII)]
5-HT1A receptor
  5-HT1A receptor modulation, +5-HT1A vs −5-HT1A cultures: receptor modulation at higher ligand concentrations

## CN(C)CCc1c[nH]c2cccc(O)c12 [psilocin, reference compound]
5-HT1A receptor
  cAMP levels in +5-HT1A cells with increasing ligand: reduction in cAMP levels
5-HT2A receptor [2]
  competition binding vs [3H]ketanserin at 5-HT2A receptor: binding

## CN(C)CCc1c[nH]c2cccc(OP(=O)(O)O)c12 [psilocybin, reference compound]
[3]
  stability in assay buffer: stability of psilocybin was confirmed
[4]
  stability / conversion to psilocin in liver fractions (HLM): stable in liver fractions with no conversion to psilocin
[5]
  stability / conversion to psilocin in liver fractions (HLS9): stable in liver fractions with no conversion to psilocin
[6]; 1 mg/kg i.v.
  detectability of parent compound in plasma, i.v. dosing: only detectable in i.v. administered animals
[6]; oral, any dose (1, 3, 10 mg/kg)
  detectability of parent compound in plasma, oral dosing: not detectable
[6]; 2 h
  Plasma concentration of psilocybin: No Peak
[6]; 4 h
  Plasma concentration of psilocybin: No Peak
[6]; 6 h
  Plasma concentration of psilocybin: No Peak
[6]; psilocybin 1.56 mg/kg oral (nominal 1 mg/kg), 24 h
  Plasma concentration of psilocin: BLQ

## NCCc1c[nH]c2ccc(O)cc12 [serotonin, reference compound]
5-HT1A receptor
  cAMP levels in +5-HT1A cells with increasing ligand: reduction in cAMP levels

## N[C@@H](Cc1c[nH]c2ccccc12)C(=O)O [tryptophan, reference compound]
5-HT1A receptor
  cAMP levels in +5-HT1A cells with increasing ligand: no reduction in cellular cAMP levels
5-HT2A receptor [2]
  competition binding vs [3H]ketanserin at 5-HT2A receptor: no binding
